In US11202792B2, “CD99 inhibitors and their uses” (GEORGETOWN UNIVERSITY, priority 2016, dated 2021):

How the values were obtained:
TC-71 ES cells = assay: Cell viability IC50, TC-71; format: cell-based, human; conditions: TC-71 cells, WST-1, 48 h (FIG. 10B)
[1] = biological target: T1, CD99-ECD (extracellular domain of human CD99) (Homo sapiens, UniProt P14209); assay: SPR binding, CD99-ECD purified from bacteria
T1 construct: the extracellular domain (Asp23-Asp122) of human CD99; made in house; host or cells: Escherichia coli BL21 (DE3)
T1 sequence (P14209 23-122): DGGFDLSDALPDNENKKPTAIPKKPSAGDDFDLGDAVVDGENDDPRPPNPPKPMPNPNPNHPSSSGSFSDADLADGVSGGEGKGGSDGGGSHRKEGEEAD
Source text: The Champion™ pET104 BioEase™ Gateway® Expression System (Invitrogen (Carlsbad, Calif.)) was used to produce CD99-ECD fused with a N-terminal biotin tag, as directed by the manufacturer's instructions. Briefly, the DNA sequence encoding the extracellular domain (Asp23-Asp122) of human CD99 was amplified by PCR using pcDNA3.1 expression vector (Life Technologies (Carlsbad, Calif.)) carrying the full-length human CD99 cDNA transcript variant 1 as template. The primers were designed to include an additional C-terminal 6×His tag in the protein. The PCR product was gel purified with a QIAquick gel extraction kit (Qiagen (Hilden, Germany)) and subcloned into the pDONR 221 entry vector. The entry clone was then subjected to a recombination reaction with pET104.1-DEST destination vector, an expression vector with a N-terminal BioEase tag. The presence of an insert was confirmed by DNA sequencing.
CD99-ECD was expressed in Escherichia coli BL21 (DE3) cells. A saturated overnight culture of cells was diluted by 20-fold into fresh LB medium containing 100 μg/mL ampicillin. To induce the expression of CD99-ECD, cells were grown to OD600nm 0.5-0.7 at 37° C. and induced by the addition of isopropyl-β-D-thiogalactopyranoside to a final concentration of 1 mmol/L. The cultures were grown for an additional 3 h at 37° C. Cells were harvested by centrifugation at 8,000×g for 15 min, resuspended in 50 mmol/L sodium phosphate buffer, pH 7.4, containing 500 mmol/L NaCl, 10 mmol/L imidazole and 1 Complete EDTA-free protease inhibitor tablet/50 mL (Roche Diagnostics), and lysed by sonication. […] Protein fractions were finally eluted with a linear gradient of imidazole (10 to 1000 mmol/L) in the same buffer. The purity of the protein was assessed by SDS-PAGE followed by Coomassie staining. The eluted fractions were stored at −80° C. for further use. […]

[2] = biological target: T2, recombinant human full-length CD99 (Homo sapiens, UniProt P14209); assay: SPR binding kinetics, recombinant human full-length CD99 (Biacore T200); conditions: full-length CD99 produced in HEK293 cells, immobilized by amine coupling
T2 construct: Purified recombinant human full-length CD99 produced in HEK293 cells was purchased from Origene; purchased Origene #TP304056; host or cells: HEK293
T2 sequence (P14209 23-185): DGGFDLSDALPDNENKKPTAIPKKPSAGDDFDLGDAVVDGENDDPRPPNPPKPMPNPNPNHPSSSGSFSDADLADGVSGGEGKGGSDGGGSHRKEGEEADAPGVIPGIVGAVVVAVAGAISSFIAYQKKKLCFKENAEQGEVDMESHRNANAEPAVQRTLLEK
Method: The initial binding screening of the NCI/DTP chemical libraries was performed on a Biacore T200 instrument at room temperature using a neutravidin-coated CM5 chip (GE Healthcare Bio-Sciences) coupled with biotinylated CD99-ECD on one flow cell at levels of ˜3,000 response units (RU). A negative control protein, Ly6k was immobilized on another flow cell of the same chip (˜11,000 RU), and the first flow cell was left empty for reference subtraction due to nonspecific binding. Analytes were diluted in HBS—P buffer [10 mmol/L HEPES, pH 7.4, 150 mmol/L NaCl, % 0.05 (v/v) surfactant P20], and were injected individually over all flow cells. The running buffer contained appropriate concentrations of DMSO in HBS—P to match the DMSO level of the samples. Kinetic studies for antibody- or compound-CD99 interactions were performed in a Biacore T200 instrument. Purified recombinant human full-length CD99 produced in HEK293 cells was purchased from Origene (Rockville, Md.) (#TP304056). The recombinant human full-length CD99 was immobilized on a CM5 sensor chip by the amine-coupling method in sodium acetate buffer, pH 4.0 (˜10,000 RU). The first flow cell was left empty for background signal subtraction. Kinetic characterization of the interactions was done by injecting increasing concentrations of analytes as indicated over CD99-captured and control surface. KD (equilibrium dissociation constant) values were obtained using BiaEvaluation software (version 1.0) (Biacore) (GE Healthcare). All kinetic experiments were conducted in HBS—P buffer, which contained 1% (v/v) DMSO in case of compounds.

A4573 ES cells = assay: Cell viability IC50 (WST-1), A4573; format: cell-based, human; conditions: WST-1, 48 h (FIG. 10B)
[3] = system: TC-71, 6647 and RDES ES cells; assay: Soft agar colony formation assay, ES cells; format: cell-based, human; conditions: dose-dependent
Method: Anchorage-independent growth was determined in 0.33% agarose (Sea-Plaque Agarose, Lonza) with a 0.5% agarose underlay. […] Colonies were counted after 7-12 days.

TC-CD99-shRNA #1 cells = assay: Soft agar colony formation assay, CD99 knockdown cells; format: cell-based, human
[4] = system: TC-71 and RD-ES cell lines; assay: Dose-dependent cytotoxicity assay in ES cell lines; format: cell-based, human; conditions: dose-response at 1, 3, 10 and 30 μmol/L in TC-71 and RD-ES
Method: The plate was installed into the RTCA system, and the electrical impedance (represented as cell index) was measured every 10 min.
The primary screen was based on a direct binding assay using surface plasmon resonance (SPR) technology with purified extracellular domain of CD99 (CD99-ECD) protein that was immobilized on a neutravidin-coated sensor chip. […] A negative control protein was used in order to eliminate non-specific binders. […] Dose-response studies were performed with 2 compounds at 1, 3, 10 and 30 μmol/L concentration in ES cell lines.

Kd [1] [µM] | Kd [2] [µM] | Compound | IC50 (TC-71 ES cells) [µM] | IC50 (A4573 ES cells) [µM] | colony formation (anchorage-independent growth) [3] | colony formation in CD99 knockdown cells (TC-CD99-shRNA #1 cells) | IC50 [4] [µM]
7.6 | 3.7 | clofarabine-5′-triphosphate | 0.17 | 0.46 | inhibited | diminished | –
– | – | C=C(Cl)C(Cl)(CBr)CCC(Br)C(C)(C)Cl (stereo not shown) [NSC662825] | – | – | – | – | 9
